pIC50: −log10 of the molar value. Where “and” joins values, the source holds several entries; their conditions need not be identical. Identical values can stand only once.
Experiments:
recombinant human PREP = recombinant human PREP (Homo sapiens (Human), UniProt P48147); test: In vitro inhibition assay, prolyl oligopeptidase; type: biochemical; conditions: Z-Gly-Pro-AMC substrate
recombinant human DPPII = recombinant human DPPII (Homo sapiens (Human), UniProt Q9UHL4); test: In vitro inhibition assay, dipeptidyl peptidase II; type: biochemical; conditions: Lys-Pro-AMC substrate, read-out: DPP2
recombinant human DPPIV = recombinant human DPPIV (Homo sapiens (Human), UniProt P27487); test: In vitro inhibition assay, dipeptidyl peptidase IV; type: biochemical; conditions: Gly-Pro-AMC substrate, read-out: DPP4
[1] = test system: MB49 murine urothelial carcinoma; test: MB49 efficacy studies; type: in vivo, mouse
recombinant human FAP = recombinant human FAP (Homo sapiens (Human), UniProt Q12884); test: In vitro inhibition assay, fibroblast activation protein; type: biochemical; conditions: Z-Gly-Pro-AMC substrate
[2] = cited from earlier work
recombinant human DPP8 = recombinant human DPP8 (Homo sapiens (Human), UniProt Q6V1X1); test: In vitro inhibition assay, dipeptidyl peptidase 8; type: biochemical; conditions: recombinant human DPP8, Gly-Pro-AMC substrate
recombinant human DPP9 = recombinant human DPP9 (Homo sapiens (Human), UniProt Q86TI2); test: In vitro inhibition assay, dipeptidyl peptidase 9; type: biochemical; conditions: recombinant human DPP9, Gly-Pro-AMC substrate
Sequence of recombinant human DPP9 (Q86TI2 whole entry): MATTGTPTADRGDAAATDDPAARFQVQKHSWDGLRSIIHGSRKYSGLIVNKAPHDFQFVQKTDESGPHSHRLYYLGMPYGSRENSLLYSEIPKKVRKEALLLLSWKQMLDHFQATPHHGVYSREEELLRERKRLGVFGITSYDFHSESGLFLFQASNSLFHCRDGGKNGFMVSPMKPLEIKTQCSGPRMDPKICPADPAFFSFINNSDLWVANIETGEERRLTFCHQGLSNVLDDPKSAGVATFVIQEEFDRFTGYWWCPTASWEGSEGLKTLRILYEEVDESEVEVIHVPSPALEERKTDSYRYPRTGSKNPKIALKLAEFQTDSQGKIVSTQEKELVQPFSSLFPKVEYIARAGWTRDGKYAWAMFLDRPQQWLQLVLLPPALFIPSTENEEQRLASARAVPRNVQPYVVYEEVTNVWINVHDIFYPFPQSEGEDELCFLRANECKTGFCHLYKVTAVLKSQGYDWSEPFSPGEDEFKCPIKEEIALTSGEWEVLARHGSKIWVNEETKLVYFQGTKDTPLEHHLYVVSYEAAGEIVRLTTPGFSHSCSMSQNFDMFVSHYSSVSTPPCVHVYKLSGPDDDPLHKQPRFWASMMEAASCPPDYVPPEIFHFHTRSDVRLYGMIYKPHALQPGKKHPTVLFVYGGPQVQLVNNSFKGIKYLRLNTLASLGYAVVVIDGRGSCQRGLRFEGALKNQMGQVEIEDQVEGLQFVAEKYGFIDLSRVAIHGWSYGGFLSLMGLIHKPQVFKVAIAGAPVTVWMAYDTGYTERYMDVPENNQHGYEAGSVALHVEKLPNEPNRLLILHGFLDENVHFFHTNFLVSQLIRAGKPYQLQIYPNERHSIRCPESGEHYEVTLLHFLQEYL

Sequence of recombinant human DPP8 (Q6V1X1 whole entry): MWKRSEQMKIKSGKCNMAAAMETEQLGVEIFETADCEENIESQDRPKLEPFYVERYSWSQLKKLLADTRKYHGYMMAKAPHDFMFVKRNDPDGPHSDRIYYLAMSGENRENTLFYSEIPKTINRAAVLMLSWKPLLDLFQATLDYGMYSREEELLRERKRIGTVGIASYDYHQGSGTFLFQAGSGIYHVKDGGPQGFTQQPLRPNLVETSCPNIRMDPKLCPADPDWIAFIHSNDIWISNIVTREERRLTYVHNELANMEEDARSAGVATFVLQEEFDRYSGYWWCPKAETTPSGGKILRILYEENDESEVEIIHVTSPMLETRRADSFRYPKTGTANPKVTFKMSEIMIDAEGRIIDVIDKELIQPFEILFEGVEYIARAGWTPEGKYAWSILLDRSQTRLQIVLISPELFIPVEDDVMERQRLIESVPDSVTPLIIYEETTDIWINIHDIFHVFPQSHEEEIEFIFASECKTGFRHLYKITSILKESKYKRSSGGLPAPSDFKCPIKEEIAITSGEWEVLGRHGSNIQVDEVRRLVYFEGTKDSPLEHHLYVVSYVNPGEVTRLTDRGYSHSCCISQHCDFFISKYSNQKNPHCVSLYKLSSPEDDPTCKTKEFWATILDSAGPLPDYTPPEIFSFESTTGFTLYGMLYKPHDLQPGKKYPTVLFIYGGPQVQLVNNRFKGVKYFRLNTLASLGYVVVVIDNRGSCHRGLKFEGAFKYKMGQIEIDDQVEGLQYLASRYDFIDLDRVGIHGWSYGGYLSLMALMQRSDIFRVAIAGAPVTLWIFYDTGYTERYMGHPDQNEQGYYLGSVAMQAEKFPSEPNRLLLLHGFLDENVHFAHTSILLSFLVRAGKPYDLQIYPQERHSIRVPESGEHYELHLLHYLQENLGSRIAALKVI
Sequence of recombinant human DPPIV (P27487 whole entry): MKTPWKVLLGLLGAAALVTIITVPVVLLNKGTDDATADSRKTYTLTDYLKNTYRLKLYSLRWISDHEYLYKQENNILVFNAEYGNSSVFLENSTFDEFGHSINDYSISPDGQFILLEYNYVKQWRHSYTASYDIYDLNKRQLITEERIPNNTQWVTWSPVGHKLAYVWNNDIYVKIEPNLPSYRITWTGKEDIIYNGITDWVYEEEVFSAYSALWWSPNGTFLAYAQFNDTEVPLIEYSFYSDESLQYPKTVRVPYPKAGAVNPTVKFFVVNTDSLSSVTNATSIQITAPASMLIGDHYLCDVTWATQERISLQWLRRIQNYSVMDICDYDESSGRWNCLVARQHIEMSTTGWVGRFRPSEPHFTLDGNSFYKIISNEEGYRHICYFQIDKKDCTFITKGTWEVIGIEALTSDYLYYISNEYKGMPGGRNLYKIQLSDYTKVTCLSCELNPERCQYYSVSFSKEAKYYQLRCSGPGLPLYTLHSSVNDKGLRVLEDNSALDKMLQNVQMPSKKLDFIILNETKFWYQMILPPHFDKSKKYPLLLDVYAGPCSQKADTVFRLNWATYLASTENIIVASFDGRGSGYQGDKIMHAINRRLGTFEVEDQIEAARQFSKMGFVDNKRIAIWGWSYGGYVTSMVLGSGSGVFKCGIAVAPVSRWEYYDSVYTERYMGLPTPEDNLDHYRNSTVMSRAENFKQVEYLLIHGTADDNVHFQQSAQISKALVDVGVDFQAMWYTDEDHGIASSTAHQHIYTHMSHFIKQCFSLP
Sequence of recombinant human PREP (P48147 whole entry): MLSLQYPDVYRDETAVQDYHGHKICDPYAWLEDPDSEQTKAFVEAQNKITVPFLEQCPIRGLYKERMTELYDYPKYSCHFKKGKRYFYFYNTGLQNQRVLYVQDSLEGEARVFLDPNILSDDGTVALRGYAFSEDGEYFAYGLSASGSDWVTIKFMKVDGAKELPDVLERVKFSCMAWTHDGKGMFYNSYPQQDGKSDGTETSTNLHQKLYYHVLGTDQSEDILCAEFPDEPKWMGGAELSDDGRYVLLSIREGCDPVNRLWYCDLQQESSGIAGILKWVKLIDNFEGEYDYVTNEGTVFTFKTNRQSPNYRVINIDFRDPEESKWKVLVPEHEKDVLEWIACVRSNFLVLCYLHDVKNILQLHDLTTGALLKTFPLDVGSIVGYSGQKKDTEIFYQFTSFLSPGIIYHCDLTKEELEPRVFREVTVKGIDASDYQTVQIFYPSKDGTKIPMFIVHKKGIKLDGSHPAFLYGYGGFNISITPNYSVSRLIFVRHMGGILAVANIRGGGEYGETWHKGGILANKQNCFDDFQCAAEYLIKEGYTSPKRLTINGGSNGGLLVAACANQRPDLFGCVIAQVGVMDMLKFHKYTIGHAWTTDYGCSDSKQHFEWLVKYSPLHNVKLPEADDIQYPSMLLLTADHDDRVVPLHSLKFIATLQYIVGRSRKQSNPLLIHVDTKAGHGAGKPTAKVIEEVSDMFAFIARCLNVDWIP
Sequence of recombinant human FAP (Q12884 whole entry): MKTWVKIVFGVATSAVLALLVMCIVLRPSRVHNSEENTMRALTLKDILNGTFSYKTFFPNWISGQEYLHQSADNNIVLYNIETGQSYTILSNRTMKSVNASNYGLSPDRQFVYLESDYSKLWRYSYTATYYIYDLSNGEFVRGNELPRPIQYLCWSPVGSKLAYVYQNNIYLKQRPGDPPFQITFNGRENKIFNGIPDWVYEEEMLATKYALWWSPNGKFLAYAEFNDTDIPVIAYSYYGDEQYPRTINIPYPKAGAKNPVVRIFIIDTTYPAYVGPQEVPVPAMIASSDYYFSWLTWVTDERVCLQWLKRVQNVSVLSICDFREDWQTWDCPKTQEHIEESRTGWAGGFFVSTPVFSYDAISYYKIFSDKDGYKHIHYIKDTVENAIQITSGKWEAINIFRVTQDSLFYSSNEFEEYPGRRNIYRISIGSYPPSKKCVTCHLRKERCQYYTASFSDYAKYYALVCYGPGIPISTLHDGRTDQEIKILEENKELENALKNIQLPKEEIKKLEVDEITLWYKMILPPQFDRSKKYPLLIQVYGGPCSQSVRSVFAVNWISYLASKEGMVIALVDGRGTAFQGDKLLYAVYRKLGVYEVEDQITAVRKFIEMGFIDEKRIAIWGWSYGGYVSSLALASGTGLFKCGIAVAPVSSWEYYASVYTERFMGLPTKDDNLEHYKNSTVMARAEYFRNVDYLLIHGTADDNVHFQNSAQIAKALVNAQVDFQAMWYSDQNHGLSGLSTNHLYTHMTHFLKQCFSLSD

pIC50 (recombinant human PREP) | pIC50 (recombinant human DPPII) | pIC50 (recombinant human DPPIV) | pIC50 (recombinant human FAP) | SMILES | also measured
 | 8.68 | 8.92 |  | N[C@H](C(=O)N1CCC[C@H]1B(O)O)C1CCCCC1 [compound 1797] | 
 |  |  | 6.89 | C[C@H](N)C(=S)N1CCC[C@H]1B(O)O [compound 2243] | 
 | 5.77 |  | 4.96 | CN(CB(O)O)C(=O)[C@@H](N)CCC(=O)O [compound 2408] | 
 | 5.19 | 8.70 |  | CC(C)[C@H](N)C(=O)N1C[C@H](O)C[C@H]1B(O)O [compound 4312] | 
 | 8.11 | 8.92 |  | CC[C@H](C)[C@H](N)C(=O)N1CCC[C@H]1B(O)O [compound 4316] | 
 | 7.92 | 8.70 |  | CC[C@@H](C)[C@H](N)C(=O)N1CCC[C@H]1B(O)O [compound 4317] | 
< 4.00 |  |  | < 4.00 | CC[C@@H](C)C(N)C(=O)N1Cc2ccc(F)cc2C1 (some centres unmarked) [compound 5291, reference compound] | 
< 4.00 | 5.38 | 8.35 | < 4.00 | CC(C)[C@H](N)C(=O)N1CCC[C@H]1C(=O)CO [compound 5298] | 
< 4.00 | 4.20 | < 4.00 | < 4.00 | N[C@H](C(=O)N1Cc2ccc(F)cc2C1)C1CCCCC1 [compound 5311] | pIC50 (recombinant human DPP8): 4.09
< 4.00 | 4.04 | < 4.00 | < 4.00 | NC(=O)C[C@H](N)C(=O)N1Cc2ccc(F)cc2C1 [compound 5316] | pIC50 (recombinant human DPP8): 5.39
< 4.00 | 4.66 | 4.26 | < 4.00 | CN(C)C(=O)C[C@H](N)C(=O)N1Cc2ccc(F)cc2C1 [compound 5317] | 
< 4.00 | 4.35 |  | < 4.00 | CC(C)[C@H](N)C(=O)N1Cc2ccc(F)cc2C1 [compound 5321] | 
< 4.00 | 4.43 |  | < 4.00 | CC(C)(C)[C@H](N)C(=O)N1Cc2ccc(F)cc2C1 [compound 5322] | 
< 4.00 | < 4.00 | 4.22 | < 4.00 | O=C([C@@H]1CCCCN1)N1Cc2ccc(F)cc2C1 [compound 5323] | pIC50 (recombinant human DPP8): 6.06; pIC50 (recombinant human DPP9): 6.52
< 4.00 | 6.07 | < 4.00 | < 4.00 | NCCCC[C@H](N)C(=O)N1Cc2ccc(F)cc2C1 [compound 5325] | pIC50 (recombinant human DPP8): 6.91
 | 4.58 |  | < 4.00 | N[C@H](C(=O)N1Cc2ccc(F)cc2C1)C1CCCC1 [compound 5333] | 
4.60 | 4.44 | < 4.00 | < 4.00 | NC1(C(=O)N2CCSC2)CCNCC1 [compound 5554] | pIC50 (recombinant human DPP8): < 4.00; pIC50 (recombinant human DPP9): < 4.00
 | 7.92 | 8.96 |  | N[C@@H](CCC(=O)O)C(=O)N1CCC[C@H]1B(O)O [compound 8120] | 

More lines, now with the values behind:

SMILES | pIC50 (recombinant human PREP) | pIC50 (recombinant human DPPII) | pIC50 (recombinant human DPPIV) | pIC50 (recombinant human FAP) | also measured
CC[C@@H](C)[C@H](N)C(=O)N1Cc2ccccc2[C@H]1B(O)O [1049 C] | < 4.00 | 7.02 |  |  | 
CC(C)[C@@H](C(=O)N1CCC[C@H]1B(O)O)N(C)C [2504 C] |  | 5.00 |  |  | 
N[C@H](C(=O)N1Cc2ccccc2C1)C1CCCCC1 [3360 C] |  |  | 5.86 |  | 
CC(C)[C@H](N)C(=O)N1C[C@@H](O)C[C@H]1B(O)O [4312 S] |  | 6.21 | 8.05 |  | 
Cc1ccc(-c2cc(C(F)(F)F)nn2-c2ccc(S(N)(=O)=O)cc2)cc1 [celecoxib] |  |  |  |  | tumor growth rates compared to control (vehicle) ([1]; celecoxib alone, various concentrations, MB49 tumor bearing mice): no observed differences in tumor growth rates compared to control
C[C@H](N)C(=O)N1CCC[C@H]1B(O)O [compound 1129] |  | 8.85 and 9.00 |  |  | 
O=C([C@@H]1CCCN1)N1CCC[C@H]1B(O)O [compound 1181] |  | 7.27 | 8.89 |  | 
N[C@@H](Cc1ccccc1)C(=O)N1CCC[C@H]1B(O)O [compound 1336] |  |  | 8.70 |  | 
CC(C)C[C@H](N)C(=O)N1CCC[C@H]1B(O)O [compound 1454] |  | 9.00 | 8.80 | 6.82 | 
NCCCC[C@H](N)C(=O)N1CCC[C@H]1B(O)O [compound 1700] |  |  | 8.89 |  | 
CC(C)[C@H](N)C(=O)N1CCC[C@H]1B(O)O [compound 2054, Valine-boroProline] |  |  |  |  | efficacy in phase II trials ([2]; in combination with standard cytotoxic chemotherapy): did not meet the endpoints for efficacy; partial response ([2]; phase I, talabostat and rituximab, rituximab-resistant lymphoma): 3 patients; patients with improvement in grade 3 neutropenia ([2]; phase I, thirteen patients, concomitant immunosuppressive chemotherapy): five; tumor regression in combination with celecoxib ([1]; 20 microgram dose of Val-boroPro, individual animal curves): facilitated the achievement of tumor regression; antitumor activity in combination with celecoxib ([1]; MB49 tumor bearing mice, Val-boroPro + celecoxib): increased the antitumor activity of Val-boroPro markedly (statistically significantly) and in a dose-dependent manner
CC[C@H](N)C(=O)N1CCC[C@H]1B(O)O [compound 5466] |  | 8.54 |  |  | 
NC1(C(=O)N2Cc3ccc(F)cc3C2)CCNCC1 [compound 5552] |  | < 4.00 |  | 4.39 | pIC50 (recombinant human DPP8): < 4.00; pIC50 (recombinant human DPP9): < 4.00
NC1(C(=O)N2Cc3ccccc3C2)CCNCC1 [compound 5553] |  | 6.01 | < 4.00 | < 4.00 | pIC50 (recombinant human DPP8): < 4.00
CC(C)(C)[C@H](N)C(=O)N1CCC[C@H]1C#N [compound 9987] | < 4.00 | < 4.00 |  |  | 
